These results are taken from patent US20140038974A1, “Compositions and Methods for Eye Whitening” (Eye Therapies, LLC, priority 2009, published 2014).

Data set [1] relates to α-2(a)-(c) adrenergic receptor subtypes. Kind of data set: α-2 receptor subtype preference, α-2(a)-(c) (Table 1). The format is binding.
Data set [2] relates to eye. Particulars: for effectiveness at reducing eye redness: both general eye redness and eye redness induced by drug administration.
Source text: Redness reduction is on a scale from 0.00 to 4.00 with 0.00 denoting the greatest redness reduction and 4.00 denoting no redness reduction. Whitening is on a scale from 0.00 to 4.00 with 0.00 denoting pearly white, glistening color and 4.00 denoting no whitening effect.
The nature of a further data set: Log P (Table 1). In kind it is physicochemical.
The test system of data set [3] is α-2 over α-1 adrenergic receptors.
In data set [4] the test system is conjunctival hyperemia / whiteness of eye. The settings on record: for subjects reporting reduced hyperemia and increased whiteness in the treated eye: […] brimonidine, one eye, 8 human subjects. The protocol: (§1) The subjects were administered with the drug in one eye and then asked to assess themselves in the mirror to see if they perceived a difference in conjunctival hyperemia between eyes. The assessments were made 5 minutes after the administration and 4 hours after the administration. After the four hours assessment, the drug was re-administered.

In another data set the test system is nasal congestion. The protocol:
as §1

Data set [5] relates to eye. Particulars: […] brimonidine. As to the method: FIG. 13 is a photograph of both eyes of the person before the drug was administered. FIG. 14A is a close-up photograph of the right eye and FIG. 14B is a close-up photograph of the left eye.
The mark [6] stands for this setting: with or without redness induced by drug administration.

Read-outs that look alike come from different tables or passages of the source. Bounds are passed on as bounds.

On to guanfacine, for which the “α-2(a)-(c)” value in data set [1] was 2(a) high. The “effectiveness at reducing eye redness” value with eye [2] is on record as “highly effective”. In the data set with eye [2] (in vivo), the “Other (pH dependence of effect)” value is recorded as “>effect hi pH” and the “Redness Reduction” value turned out to be 0.00. Also, the “further whitening eyes beyond their usual color” value in the data set with eye [2] (setting [6]) is listed as “highly effective”.
Usually logP stands for a log measure of how a compound divides between an organic and an aqueous phase. A high value points to higher lipophilicity. With `Cc1cccc([C@H](C)c2cnc[nH]2)c1C` [Dexmedetomidine, dexmedetomidine], the “α-2(a)-(c)” value in data set [1] is listed as “general”. Besides, the logP in the data set “Log P (Table 1)” came to 3. For the same molecule, the “effectiveness at reducing eye redness” value in the data set with eye [2] is “highly effective”. Besides, in the data set with eye [2] (setting [6]), the “further whitening eyes beyond their usual color” value is “generally ineffective”. For the same molecule, the Selectivity in data set [3] came out at 1660.
A word on the Log P: it is the decadic logarithm of the partition coefficient of the neutral form, usually between octanol and water. On to `Oc1ccc2c(c1)C(Cc1c[nH]cn1)CC2` (stereo not shown) [Fadolmidine, fadolmidine], for which the “α-2(a)-(c)” value in data set [1] is on record as “general”. The “Log P” value in “Log P (Table 1)” was determined as 2.16.
As to `Brc1c(NC2=NCCN2)ccc2nccnc12` [Brimonidine, brimonidine], in data set [1], the “α-2(a)-(c)” value is reported as “general”. This molecule also gave a lipophilicity (logP) in the data set “Log P (Table 1)” of 1. Moreover, the “subjects reporting reduced hyperemia and increased whiteness in the treated eye” value in data set [4] (5 min assessment) and in data set [4] (four hour assessment) was “eight of eight” each time. Further, in data set [4] (low dose ([…]) brimonidine, Example 3 conclusion), the “effect on redness and whiteness of eyes” value is “significant reduction of redness and increase of whiteness”. In addition, the “subjects reporting reduced nasal congestion in the nostril on the same side as the treated eye” value in the data set on nasal congestion ([…] brimonidine, one eye, four hour assessment, 8 human subjects) is given as “six of eight”. The “effect on nasal congestion” value in the data set on nasal congestion (in several subjects, nostril on the same side as the treated eye, Example 3 conclusion) was “reducing nasal congestion”. In the data set on eye [5] (right eye, person with healthy eyes, left eye untreated), the “cosmetic whitening of an eye” value is “noticeably cosmetically whitened”. The “effect on redness and whiteness of an eye” value with eye [5] (child patient) was “significant reduction of redness and increase of whiteness”; in the data set on eye [5] (patient with glaucoma receiving Lumigan (bimatoprost 0.03%)), “significant reduction of redness and increase of whiteness”. The “further whitening eyes beyond their usual color” value with eye [2] (after redness inducing drug administration) is listed as “general ineffectiveness”. Besides, the “effectiveness at reducing eye redness” value in the data set on eye [2] is given as “highly effective”. Besides, in the data set on eye [2] (in vivo), the “Other (pH dependence of effect)” value is on record as “>effect lo pH”.
